# “Also recorded” adds a separate entry of the source. Ends that are not written are not given here.
# Key:
# [1] = biological target: T1, Calcitonin Receptor (CTR) (Homo sapiens, UniProt P30988); assay: Prolonged β-arrestin recruitment, calcitonin receptor activation over time (U2OS CALCR cells); type: cell-based; conditions: single dose of 100 nM at t=0, read up to 72 hours, FIGS. 3A-3B
# T1 construct: host or cells: U2OS
# T1 sequence (P30988 25-474): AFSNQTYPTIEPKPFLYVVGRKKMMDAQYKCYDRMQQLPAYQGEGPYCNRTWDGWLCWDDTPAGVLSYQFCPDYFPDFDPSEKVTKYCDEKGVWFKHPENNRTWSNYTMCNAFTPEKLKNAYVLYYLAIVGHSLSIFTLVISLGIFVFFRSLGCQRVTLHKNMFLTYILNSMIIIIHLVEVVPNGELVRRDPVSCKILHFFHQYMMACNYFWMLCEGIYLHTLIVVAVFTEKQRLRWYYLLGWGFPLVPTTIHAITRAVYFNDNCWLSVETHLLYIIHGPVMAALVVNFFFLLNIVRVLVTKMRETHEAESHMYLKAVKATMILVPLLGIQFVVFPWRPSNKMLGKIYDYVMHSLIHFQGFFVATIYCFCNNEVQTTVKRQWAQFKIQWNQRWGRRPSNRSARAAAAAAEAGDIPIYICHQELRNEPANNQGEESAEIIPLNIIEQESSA
# Description: FIGS. 3A-3B: Prolonged β-arrestin recruitment by KBP-046-KBP-054 (FIG. 3A) and KBP-058-KBP-063 (FIG. 3B) and human calcitonin as a function of calcitonin receptor activation. Single dose of 100 nM at t=0 and after 3, 6, 24, and 72 hours after initial treatment, β-arrestin recruitment was assessed to investigate each ligands protracted potential. Data is shown as fold of vehicle. Screening was conducted in U2OS CALCR Pathhunter cells from DiscoveRx.
# (§1) In the following examples, the following materials and methods were employed. The following cell lines expressing the calcitonin, amylin and CGRP receptors were purchased and cultured according to the manufacturer's instructions. • 1. Calcitonin Receptor (CTR): U2OS-CALCR from DiscoveRx (Cat. No.: 93-0566C3). • 2. Amylin Receptor (AMY-R): CHO-K1 CALCR+RAMP3 from DiscoveRx (Cat. No.: 93-0268C2). In independent bioassays, CTR and AMY-R cells were treated with for the indicated timepoints with increasing doses of KBPs identified in Tables 1A and 1B (1000, 250, 62.5, 15.6, 3.9, 1.0, 0.24, 0.06, 0.02 nM and vehicle).
# (§2) PathHunter β-Arrestin GPCR assays are whole cell, functional assays that directly measure the ability of a ligand to activate a GPCR by detecting the interaction of β-Arrestin with the activated GPCR. Because β-arrestin recruitment is independent of G-protein signaling, these assays offer a powerful and universal screening and profiling platform that can be used for virtually any Gi-, Gs, or Gq-coupled receptor.
# (§3) In this system, the GPCR is fused in frame with the small enzyme fragment ProLink™ and co-expressed in cells stably expressing a fusion protein of β-Arrestin and the larger, N-terminal deletion mutant of β-gal (called enzyme acceptor or EA). Activation of the GPCR stimulates binding of β-Arrestin to the ProLink-tagged GPCR and forces complementation of the two enzyme fragments, resulting in the formation of an active β-gal enzyme. This interaction leads to an increase in enzyme activity that can be measured using chemiluminescent PathHunter® Detection Reagents.
# (§4) The assay was performed in white 384 well plates (Greiner Bio-One, 784080). Cells were seeded 2500 cells per well in 10 μL cell-type specific medium the day prior to the experiment. To quantify the GPCR-mediated β-arrestin recruitment the Pathhunter™ Detection Kit (93-0001, DiscoverX) was used and assay performed accordingly to the manufacturer's instructions. Furthermore, data from the Pathhunter™ β-arrestin recruitment assay was normalized to an internal standard to improve the distinction between top KBP performers and non-performers.
# Results are seen in FIGS. 1A-1B, 2A-2B and 3A-3B. […] This was done using the calcitonin receptor (CTR): U2OS-CALCR from DiscoveRx (Cat. No.: 93-0566C3) cell line, and as opposed to the classical three hour output, β-arrestin accumulation was conducted over 24, 48 and 72 hour and then analyzed.
# Amylin Receptor (AMY-R) = biological target: T2, Amylin Receptor (AMY-R) (Homo sapiens, UniProt P30988); assay: PathHunter β-arrestin recruitment dose response, amylin receptor activation (CHO-K1 CALCR RAMP3 cells); type: cell-based; conditions: FIGS. 2A-2B
# T2 construct: host or cells: CHO-K1
# T2 sequence (P30988 25-474): T1 sequence (P30988 25-474)
# T2 sequence (O60896 24-148 partner): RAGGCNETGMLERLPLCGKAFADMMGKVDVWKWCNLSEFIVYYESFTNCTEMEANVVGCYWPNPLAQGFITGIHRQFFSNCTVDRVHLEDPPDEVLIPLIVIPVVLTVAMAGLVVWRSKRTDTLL
# Description: FIGS. 2A-2B: β-arrestin recruitment dose response by KBP-046-KBP-054 (FIG. 2A) and KBP-058-KBP-063 (FIG. 2B) as a function of amylin receptor activation. Dose range is 1 μM to 15 μM and data is shown as fold of vehicle. Screening was conducted in CHO-K1 CALCR RAMP3 Pathhunter cells from DiscoveRx.
# as §1, §2, §3, §4
# Sprague Dawley Rats = assay: Food intake in healthy Sprague Dawley rats after single s.c. dose; type: in vivo, rat; conditions: single s.c. dose 2.5 μg/kg; for Food Intake ΔFOOD Sustained Attenuation Hours: SD rats fasted overnight, food intake monitored 0-4 h and 4-24 h; for reduction in food intake within the 4 hour interval / time to which the reduction in food intake was maintained (sustained effect) / size of reduction in food intake compared with the other tested peptides: SD rats; for reduction in food intake within the 4 hour interval: 0-4 hours; for time to which the reduction in food intake was maintained (sustained effect): intervals 0-4 and 4-24 hours; for size of reduction in food intake compared with the other tested peptides: FIG. 4A (KBP-046 to -054) and FIG. 4B (KBP-058 to -063)
# Description: FIGS. 4A-43: Protracted attenuation of food intake in SD rats by KBP-046-KBP-054 (FIG. 4A) and KBP-058-KBP-063 (FIG. 4B). After single s.c dose of 2.5 μg/kg of KBP, food intake was monitored in intervals of 0-4 h and 4-24 h to assess the protracted action of individual KBPs. Individual rats were single caged, n=4 in each group.
# Rats were single caged four days prior to individual tests. They were randomized by weight into seven groups (Vehicle (0.9% NaCl), KBPs (doses: 2.5 μg/kg). They were fasted overnight and then treated with a single dose of peptide or vehicle in the morning using subcutaneous administration. The food intake was monitored in the following intervals (0-4 hours and 4-24 hours).
substance,measurement,setting,value
"CGNLSTCMLGRLSQDLNKFHTFPQTDVGANAP (not fully specified; ends and bridges not checked) [KBP-063, Calcitonin mimetic peptide]","protracted calcitonin receptor activation (prolonged β-arrestin recruitment, fold of vehicle)",[1],superior
same,"amylin receptor activation (β-arrestin recruitment, fold of vehicle)",Amylin Receptor (AMY-R),potent amylin agonists
same,Food Intake ΔFOOD Sustained Attenuation Hours,Sprague Dawley Rats,24 h
same,reduction in food intake within the 4 hour interval,Sprague Dawley Rats,reduction in food intake
same,time to which the reduction in food intake was maintained (sustained effect),Sprague Dawley Rats,24 h
same,size of reduction in food intake compared with the other tested peptides,Sprague Dawley Rats,far greater reduction in food intake
"KBP-051: Calcitonin mimetic peptide, Table 1 residues CSNLSTCMLGRLSQDLHRLQTYPKTAIGVGAP (not fully specified; ends and bridges not checked)",Food Intake ΔFOOD Sustained Attenuation Hours,Sprague Dawley Rats,4 h
"KBP-061: Calcitonin mimetic peptide, Table 1 residues CGNLSTCMLGTYTQDFHRLQTFPQTDVGANAP (printed identical to KBP-060) (not fully specified; ends and bridges not checked)",Food Intake ΔFOOD Sustained Attenuation Hours,Sprague Dawley Rats,4 h
"CGNLSTCMLGRLTQDFHKLHTFPKTDVGANAP (not fully specified; ends and bridges not checked) [KBP-058, Calcitonin mimetic peptide]","protracted calcitonin receptor activation (prolonged β-arrestin recruitment, fold of vehicle)",[1],superior
same,"amylin receptor activation (β-arrestin recruitment, fold of vehicle)",Amylin Receptor (AMY-R),potent amylin agonists
same,Food Intake ΔFOOD Sustained Attenuation Hours,Sprague Dawley Rats,24 h
same,reduction in food intake within the 4 hour interval,Sprague Dawley Rats,reduction in food intake
same,time to which the reduction in food intake was maintained (sustained effect),Sprague Dawley Rats,24 h
same,size of reduction in food intake compared with the other tested peptides,Sprague Dawley Rats,far greater reduction in food intake
"KBP-059: Calcitonin mimetic peptide, Table 1 residues CGNLSTCMLGTYTQDLHKLHTFPKTDVGANAP (not fully specified; ends and bridges not checked)",Food Intake ΔFOOD Sustained Attenuation Hours,Sprague Dawley Rats,4 h
"CGNLSTCMLGRLSQDLNKFHTFPKTDVGANAP (not fully specified; ends and bridges not checked) [KBP-047, Calcitonin mimetic peptide]","protracted calcitonin receptor activation (prolonged β-arrestin recruitment, fold of vehicle)",[1],superior
same,"amylin receptor activation (β-arrestin recruitment, fold of vehicle)",Amylin Receptor (AMY-R),potent amylin agonists
same,Food Intake ΔFOOD Sustained Attenuation Hours,Sprague Dawley Rats,24 h
same,reduction in food intake within the 4 hour interval,Sprague Dawley Rats,reduction in food intake
same,time to which the reduction in food intake was maintained (sustained effect),Sprague Dawley Rats,24 h
same,size of reduction in food intake compared with the other tested peptides,Sprague Dawley Rats,largest reduction; also recorded: far greater reduction in food intake
"CGNLSTCMLGRLTQDLNKFHTFPKTDVGANAP (not fully specified; ends and bridges not checked) [KBP-062, Calcitonin mimetic peptide]","protracted calcitonin receptor activation (prolonged β-arrestin recruitment, fold of vehicle)",[1],superior
same,"amylin receptor activation (β-arrestin recruitment, fold of vehicle)",Amylin Receptor (AMY-R),potent amylin agonists
same,Food Intake ΔFOOD Sustained Attenuation Hours,Sprague Dawley Rats,24 h
same,reduction in food intake within the 4 hour interval,Sprague Dawley Rats,reduction in food intake
same,time to which the reduction in food intake was maintained (sustained effect),Sprague Dawley Rats,24 h
same,size of reduction in food intake compared with the other tested peptides,Sprague Dawley Rats,largest reduction; also recorded: top performance in the screening; also recorded: far greater reduction in food intake
"CGNLSTCMLGRLTQDLHKLQTFPKTDVGANAP (not fully specified; ends and bridges not checked) [KBP-053, Calcitonin mimetic peptide]","protracted calcitonin receptor activation (prolonged β-arrestin recruitment, fold of vehicle)",[1],superior
same,"amylin receptor activation (β-arrestin recruitment, fold of vehicle)",Amylin Receptor (AMY-R),potent amylin agonists
same,Food Intake ΔFOOD Sustained Attenuation Hours,Sprague Dawley Rats,24 h
same,reduction in food intake within the 4 hour interval,Sprague Dawley Rats,reduction in food intake
same,time to which the reduction in food intake was maintained (sustained effect),Sprague Dawley Rats,24 h
same,size of reduction in food intake compared with the other tested peptides,Sprague Dawley Rats,far greater reduction in food intake
"KBP-050: Calcitonin mimetic peptide, Table 1 residues CGNLSTCMLGRLSQDLHRLQTYPKTAIGVGAP (not fully specified; ends and bridges not checked)",Food Intake ΔFOOD Sustained Attenuation Hours,Sprague Dawley Rats,4 h
"KBP-060: Calcitonin mimetic peptide, Table 1 residues CGNLSTCMLGTYTQDFHRLQTFPQTDVGANAP",Food Intake ΔFOOD Sustained Attenuation Hours,Sprague Dawley Rats,4 h
"KBP-046: Calcitonin mimetic peptide, Table 1 residues CGNLSTCMLGTYTQDFHRLQTYPKTDVGANAP (not fully specified; ends and bridges not checked)",Food Intake ΔFOOD Sustained Attenuation Hours,Sprague Dawley Rats,4 h
"KBP-052: Calcitonin mimetic peptide, Table 1 residues CSNLSTCMLGTYTQDFHRLQTYPKTAIGVGAP (not fully specified; ends and bridges not checked)",Food Intake ΔFOOD Sustained Attenuation Hours,Sprague Dawley Rats,4 h
"KBP-054: Calcitonin mimetic peptide, Table 1 residues CGNLST, positions 7-8 blank, LGRYTQDFHKPQTFPKTDVGANAP",Food Intake ΔFOOD Sustained Attenuation Hours,Sprague Dawley Rats,4 h
"KBP-048: Calcitonin mimetic peptide, Table 1 residues CGNLSTCMLGTYTQDFNKFNTFPKTDVGANAP",Food Intake ΔFOOD Sustained Attenuation Hours,Sprague Dawley Rats,4 h
